Read-outs that look alike come from different tables or passages of the source.
Legend:
SKCO1 cell line = assay: Growth inhibition, CyQUANT Direct Cell Proliferation Assay, SKCO1; type: cell-based; details: Homo sapiens
Protocol: (§1) SKCO1, LS180, and LS174T cell lines were purchased from ATCC. CW2 cell line was purchased from Riken. GP2D cell line was purchased from Sigma/ECACC. All cell lines were cultured in manufacturer's recommended media at 37° C., 5% CO2. Briefly, cells were suspended in 200 μL of media and seeded at 300 to 1,800 cells per well in tissue culture treated 96-well plates with black walls and clear bottom. Plates were incubated overnight and initial (To) read was performed the following day using CyQUANT Direct Cell Proliferation Assay Kit (Thermo Fisher Scientific) according to manufacturer's protocol. All compounds were solubilized in DMSO and prepared at 3-fold serial dilution, using 9 points starting at 30 μM as highest concentration, administered to cells and incubated for 120 to 168 hours, at which point CyQUANT assay measurement was performed using Acumen Cellista instrument (Ex/Em 480/520 nm). Media-only wells were used as blank, and 0.3% DMSO was used as DMSO-treated cell control. Growth inhibition (percent response) was calculated using the following formula in Excel: “=if ([Compound treated Day N]>[Untreated Day 0, AVG], ([Compound treated Day N]−[Untreated Day 0, AVG])/([Untreated Day N]−[Untreated Day 0, AVG])*100, ([Compound Treated Day N]−[Untreated Day 0, AVG])/([Untreated Day 0, AVG])*100)”. GI50 is the response corresponding to the 50% of untreated control.
(§2) GI50 data are reported in Tables 4a, 4b, 4c, 4d, and 4e for compounds in Table 1. In Tables 4a, 4b, 4c, 4d, and 4e below, According to the code, A represents a GI50 value of ≤0.1 μM, B represents a GI50 value>0.1 μM and ≤1 μM, C represents an GI50 value>1 μM.

CW2 cell line = assay: Growth inhibition, CyQUANT Direct Cell Proliferation Assay, CW2; type: cell-based; details: Homo sapiens
Protocol: as §1, §2

CK1α = molecular target: T1, CK1α (Homo sapiens, UniProt P48729); assay: CK1α NanoBit Assay (HiBiT-tagged CSNK1A1, HEK293 clonal lines); type: cell-based; details: HEK293 HiBiT-CSNK1A1/LgBiT cells, 24 h incubation
T1 construct: HEK293 clonal lines with CRISPR KI HiBiT tag on CSNK1A1
How it was run: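 HEK293 clones carrying a CRISPR knock-in HiBiT tag on CSNK1A1 and stably expressing LgBiT are treated with compound for 24 hours at 37° C, 5% CO2, then read by luminescence. Response is normalized as 100*(S−N)/(P−N) against plate negative and positive controls, and DC50 values are derived.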

CRBN/DDB1 = CRBN/DDB1 (Homo sapiens, UniProt Q96SW2); assay: HTRF binding assay (displacement of Cy5-thalidomide probe from CRBN/DDB1); details: CRBN/DDB1 2.5 nM, Cy5-Thalidomide 100 nM, 30 min; geometric mean; read-out: HTRF_Thali_Disp_DR_geo_IC50
How it was run: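 HTRF displacement of Cy5-thalidomide (100 nM) from His-tagged CRBN/DDB1 (2.5 nM) with anti-His Tb cryptate in 20 mM HEPES, 20 mM NaCl, 0.2 mM TCEP, 0.2 mM EDTA, 0.005% Tween20. 10-point 1:3 series, 30 min ambient. 665/620 nm ratio fitted 4-parameter for IC50; Ki by Cheng-Prusoff from geometric-mean IC50.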

GP2D cell line = assay: Growth inhibition, CyQUANT Direct Cell Proliferation Assay, GP2D; type: cell-based
Protocol: as §1, §2

LS180 cell line = assay: Growth inhibition, CyQUANT Direct Cell Proliferation Assay, LS180; type: cell-based; details: Homo sapiens
Protocol: as §1, §2

LS174T cell line = assay: Growth inhibition, CyQUANT Direct Cell Proliferation Assay, LS174T; type: cell-based; details: Homo sapiens
Protocol: as §1, §2

[1] = SK-CO-1, SKCO1, 120 to 168 hours, read-out: SKCO1 GI50
[2] = CW-2, CW2, 120 to 168 hours, read-out: CW2 GI50
[3] = GP2D, 120 to 168 hours, read-out: GP2D GI50
[4] = LS180, 120 to 168 hours, read-out: LS180 GI50
[5] = 120 to 168 hours, read-out: LS174T GI50
[6] = SK-CO-1, read-out: SKCO1 GI50 (μM)
[7] = LS180, read-out: LS180 GI50 (μM)

Chain of CRBN/DDB1 (Q96SW2 whole entry, species assumed): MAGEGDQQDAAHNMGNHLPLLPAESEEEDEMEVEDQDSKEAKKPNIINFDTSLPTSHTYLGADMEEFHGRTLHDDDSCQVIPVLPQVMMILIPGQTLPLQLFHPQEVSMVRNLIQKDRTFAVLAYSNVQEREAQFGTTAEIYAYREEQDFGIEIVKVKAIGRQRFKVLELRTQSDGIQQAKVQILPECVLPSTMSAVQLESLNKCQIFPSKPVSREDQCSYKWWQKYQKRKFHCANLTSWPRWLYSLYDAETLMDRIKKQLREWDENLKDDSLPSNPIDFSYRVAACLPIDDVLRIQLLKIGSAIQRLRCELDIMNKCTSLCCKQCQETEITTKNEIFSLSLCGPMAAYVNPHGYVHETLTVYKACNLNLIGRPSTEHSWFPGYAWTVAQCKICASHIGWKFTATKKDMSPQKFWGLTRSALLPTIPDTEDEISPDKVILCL
Chain of CRBN/DDB1 (Q16531 whole entry partner, species assumed): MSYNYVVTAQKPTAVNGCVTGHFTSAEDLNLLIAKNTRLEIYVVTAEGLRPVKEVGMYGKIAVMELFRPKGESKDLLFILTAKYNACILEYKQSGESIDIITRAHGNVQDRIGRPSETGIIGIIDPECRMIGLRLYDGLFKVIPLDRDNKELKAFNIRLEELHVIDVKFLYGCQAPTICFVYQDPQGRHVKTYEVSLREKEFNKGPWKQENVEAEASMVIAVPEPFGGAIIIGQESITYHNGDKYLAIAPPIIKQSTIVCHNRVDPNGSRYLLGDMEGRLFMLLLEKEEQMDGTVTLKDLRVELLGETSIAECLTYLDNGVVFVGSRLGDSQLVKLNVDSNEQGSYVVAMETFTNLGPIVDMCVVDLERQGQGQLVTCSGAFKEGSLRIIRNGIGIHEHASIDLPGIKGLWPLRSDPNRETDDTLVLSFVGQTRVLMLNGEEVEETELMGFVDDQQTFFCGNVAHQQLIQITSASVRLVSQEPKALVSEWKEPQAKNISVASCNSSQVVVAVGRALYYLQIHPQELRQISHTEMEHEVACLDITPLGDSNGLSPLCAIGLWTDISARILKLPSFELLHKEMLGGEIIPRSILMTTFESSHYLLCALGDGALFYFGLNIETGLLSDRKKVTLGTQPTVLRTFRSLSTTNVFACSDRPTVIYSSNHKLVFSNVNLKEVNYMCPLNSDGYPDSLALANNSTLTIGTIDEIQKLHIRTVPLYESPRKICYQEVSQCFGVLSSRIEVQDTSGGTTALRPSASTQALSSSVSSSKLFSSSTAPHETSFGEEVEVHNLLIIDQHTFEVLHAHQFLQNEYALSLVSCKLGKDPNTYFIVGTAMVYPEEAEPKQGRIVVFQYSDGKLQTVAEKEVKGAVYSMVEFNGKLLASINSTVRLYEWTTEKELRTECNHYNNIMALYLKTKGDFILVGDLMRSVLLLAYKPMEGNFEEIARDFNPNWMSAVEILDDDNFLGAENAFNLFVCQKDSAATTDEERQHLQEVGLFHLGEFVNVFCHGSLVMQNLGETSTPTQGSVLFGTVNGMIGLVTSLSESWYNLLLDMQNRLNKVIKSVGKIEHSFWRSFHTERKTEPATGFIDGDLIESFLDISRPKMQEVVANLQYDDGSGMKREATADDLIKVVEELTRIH
T1 sequence (P48729 whole entry): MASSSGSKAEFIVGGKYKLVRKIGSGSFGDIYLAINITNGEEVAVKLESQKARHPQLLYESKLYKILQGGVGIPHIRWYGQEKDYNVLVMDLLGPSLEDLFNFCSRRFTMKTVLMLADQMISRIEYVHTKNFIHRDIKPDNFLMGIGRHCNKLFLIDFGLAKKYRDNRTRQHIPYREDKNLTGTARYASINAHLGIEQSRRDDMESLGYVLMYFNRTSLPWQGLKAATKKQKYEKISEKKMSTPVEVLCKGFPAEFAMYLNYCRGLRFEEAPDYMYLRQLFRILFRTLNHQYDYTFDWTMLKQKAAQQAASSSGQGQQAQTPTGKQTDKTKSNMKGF
T1 sequence (Q96SW2 whole entry, further chain): as the sequence (Q96SW2 whole entry, species assumed) above
T1 sequence (Q16531 2-1140 partner limits assumed): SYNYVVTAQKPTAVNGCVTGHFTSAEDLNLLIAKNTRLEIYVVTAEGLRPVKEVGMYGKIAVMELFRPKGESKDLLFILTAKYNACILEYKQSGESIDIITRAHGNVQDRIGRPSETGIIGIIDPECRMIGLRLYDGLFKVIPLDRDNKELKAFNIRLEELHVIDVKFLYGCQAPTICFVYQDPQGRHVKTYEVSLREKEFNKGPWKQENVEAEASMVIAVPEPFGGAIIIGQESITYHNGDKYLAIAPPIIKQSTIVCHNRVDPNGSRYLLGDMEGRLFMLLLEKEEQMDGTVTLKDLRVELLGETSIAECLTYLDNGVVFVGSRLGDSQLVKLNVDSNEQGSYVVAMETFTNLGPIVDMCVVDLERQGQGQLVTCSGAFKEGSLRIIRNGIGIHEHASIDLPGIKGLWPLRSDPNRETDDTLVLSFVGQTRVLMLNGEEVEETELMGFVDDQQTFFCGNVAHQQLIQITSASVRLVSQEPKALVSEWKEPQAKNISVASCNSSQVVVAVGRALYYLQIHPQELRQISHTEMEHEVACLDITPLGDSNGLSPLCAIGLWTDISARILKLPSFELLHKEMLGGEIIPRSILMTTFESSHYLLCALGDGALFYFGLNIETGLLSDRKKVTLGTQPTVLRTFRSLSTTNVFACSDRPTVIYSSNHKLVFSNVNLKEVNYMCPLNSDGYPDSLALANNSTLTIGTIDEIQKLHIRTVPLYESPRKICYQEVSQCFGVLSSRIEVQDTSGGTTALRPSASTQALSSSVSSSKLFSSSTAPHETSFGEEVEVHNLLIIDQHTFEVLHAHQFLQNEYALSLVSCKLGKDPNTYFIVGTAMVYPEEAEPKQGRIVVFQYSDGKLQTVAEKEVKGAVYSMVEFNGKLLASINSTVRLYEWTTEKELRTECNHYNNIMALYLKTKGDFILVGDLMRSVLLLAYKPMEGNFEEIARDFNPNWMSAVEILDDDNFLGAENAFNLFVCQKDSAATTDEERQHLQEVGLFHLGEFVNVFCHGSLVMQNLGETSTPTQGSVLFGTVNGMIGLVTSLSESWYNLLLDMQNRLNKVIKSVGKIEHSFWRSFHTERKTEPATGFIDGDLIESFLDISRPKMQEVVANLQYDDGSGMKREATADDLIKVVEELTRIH

Row | SMILES | GI50 (SKCO1 cell line; [1]) | GI50 (CW2 cell line; [2]) | DC50 (CK1α) | IC50 (CRBN/DDB1) | GI50 (GP2D cell line; [3]) | GI50 (LS180 cell line; [4]) | GI50 (LS174T cell line; [5]) | GI50 (SKCO1 cell line; [6]) | GI50 (CW2 cell line; CW-2, read-out: CW2 GI50 (μM)) | GI50 (GP2D cell line; GP2d, read-out: GP2D GI50 (μM)) | GI50 (LS180 cell line; [7]) | GI50 (LS174T cell line; read-out: LS174T GI50 (μM))
1 | Cc1cccc2c1CCN2C(=O)Nc1ccc2c(c1)CN(C1CCC(=O)NC1=O)C2=O (centres unmarked) [Compound 198, N-(2-(2,6-dioxopiperidin-3-yl)-1-oxoisoindolin-5-yl)-4-methylindoline-1-carboxamide] | < 0.1 µM | < 0.1 µM | < 0.1 µM | 100 to 1000 nM | < 0.1 µM | 0.1 to 1 µM | 0.1 to 1 µM | – | – | – | – | –
2 | O=C1CCC(N2Cc3cc(NC(=O)N4CCc5c(F)cccc54)ccc3C2=O)C(=O)N1 (centres unmarked) [Compound 201, N-(2-(2,6-dioxopiperidin-3-yl)-1-oxoisoindolin-5-yl)-4-fluoroindoline-1-carboxamide] | < 0.1 µM | < 0.1 µM | < 0.1 µM | > 1000 nM | < 0.1 µM | 0.1 to 1 µM | < 0.1 µM | – | – | – | – | –
3 | CC1Cc2ccccc2CN1C(=O)Nc1ccc2c(c1)CN(C1CCC(=O)NC1=O)C2=O (centres unmarked) [Compound 205, N-(2-(2,6-dioxopiperidin-3-yl)-1-oxoisoindolin-5-yl)-3-methyl-3,4-dihydroisoquinoline-2(1H)-carboxamide] | – | – | < 0.1 µM | 100 to 1000 nM | – | – | – | < 0.1 µM | < 0.1 µM | < 0.1 µM | 0.1 to 1 µM | 0.1 to 1 µM
4 | O=C1CCC(N2Cc3cc(NC(=O)N4CC5(CC5)c5ccccc54)ccc3C2=O)C(=O)N1 (centres unmarked) [Compound 210, N-(2-(2,6-dioxopiperidin-3-yl)-1-oxoisoindolin-5-yl)spiro[cyclopropane-1,3′-indoline]-1′-carboxamide] | – | – | < 0.1 µM | 100 to 1000 nM | – | – | – | < 0.1 µM | < 0.1 µM | < 0.1 µM | 0.1 to 1 µM | < 0.1 µM
5 | Cc1ccc2c(c1)CCN2C(=O)Nc1ccc2c(c1)CN(C1CCC(=O)NC1=O)C2=O (centres unmarked) [Compound 214, N-(2-(2,6-dioxopiperidin-3-yl)-1-oxoisoindolin-5-yl)-5-methylindoline-1-carboxamide] | < 0.1 µM | < 0.1 µM | < 0.1 µM | 100 to 1000 nM | < 0.1 µM | 0.1 to 1 µM | 0.1 to 1 µM | – | – | – | – | –
6 | O=C1CCC(N2Cc3cc(NC(=O)N4C[C@H](C5CC5)C[C@@H]4C4CC4)ccc3C2=O)C(=O)N1 (some centres unmarked) [Compound 256] | < 0.1 µM | < 0.1 µM | < 0.1 µM | 100 to 1000 nM | 0.1 to 1 µM | 0.1 to 1 µM | < 0.1 µM | – | – | – | – | –
7 | C[C@H]1CN(C(=O)Nc2ccc3c(c2)CN(C2CCC(=O)NC2=O)C3=O)c2ccccc21 (some centres unmarked) [Compound 284] | < 0.1 µM | < 0.1 µM | < 0.1 µM | 100 to 1000 nM | 0.1 to 1 µM | 0.1 to 1 µM | < 0.1 µM | – | – | – | – | –
8 | O=C1CCC(N2Cc3cc(NC(=O)N4CCc5cc(C(F)(F)F)ncc54)ccc3C2=O)C(=O)N1 (centres unmarked) [Compound 287, N-(2-(2,6-dioxopiperidin-3-yl)-1-oxoisoindolin-5-yl)-5-(trifluoromethyl)-2,3-dihydro-1H-pyrrolo[2,3-c]pyridine-1-carboxamide] | – | – | < 0.1 µM | 100 to 1000 nM | – | – | – | < 0.1 µM | < 0.1 µM | < 0.1 µM | 0.1 to 1 µM | < 0.1 µM
9 | COC[C@H]1CN(C(=O)Nc2ccc3c(c2)CN(C2CCC(=O)NC2=O)C3=O)c2cccc(C(F)(F)F)c21 (stereo partly drawn) [Compound 329, (3R)—N-(2-(2,6-dioxopiperidin-3-yl)-1-oxoisoindolin-5-yl)-3-(methoxymethyl)-4-(trifluoromethyl)indoline-1-carboxamide] | < 0.1 µM | 0.1 to 1 µM | < 0.1 µM | 100 to 1000 nM | 0.1 to 1 µM | 0.1 to 1 µM | 0.1 to 1 µM | – | – | – | – | –
10 | COC[C@H]1Cc2c(C3CC3)cccc2N1C(=O)Nc1ccc2c(c1)CN(C1CCC(=O)NC1=O)C2=O (stereo partly drawn) [Compound 332, (2R)-4-cyclopropyl-N-(2-(2,6-dioxopiperidin-3-yl)-1-oxoisoindolin-5-yl)-2-(methoxymethyl)indoline-1-carboxamide] | 0.1 to 1 µM | < 0.1 µM | < 0.1 µM | 100 to 1000 nM | 0.1 to 1 µM | 0.1 to 1 µM | 0.1 to 1 µM | – | – | – | – | –
11 | COC[C@H]1CN(C(=O)Nc2ccc3c(c2)CN(C2CCC(=O)NC2=O)C3=O)c2ccccc21 (stereo partly drawn) [Compound 338, (3R)—N-(2-(2,6-dioxopiperidin-3-yl)-1-oxoisoindolin-5-yl)-3-(methoxymethyl)indoline-1-carboxamide] | < 0.1 µM | 0.1 to 1 µM | < 0.1 µM | 100 to 1000 nM | < 0.1 µM | < 0.1 µM | < 0.1 µM | – | – | – | – | –
12 | COC[C@@H]1Cc2c(C3CC3)cccc2N1C(=O)Nc1ccc2c(c1)CN(C1CCC(=O)NC1=O)C2=O (stereo partly drawn) [Compound 339, (2S)-4-cyclopropyl-N-(2-(2,6-dioxopiperidin-3-yl)-1-oxoisoindolin-5-yl)-2-(methoxymethyl)indoline-1-carboxamide] | 0.1 to 1 µM | 0.1 to 1 µM | < 0.1 µM | 100 to 1000 nM | 0.1 to 1 µM | > 1 µM | 0.1 to 1 µM | – | – | – | – | –
13 | O=C1CCC(N2Cc3cc(NC(=O)N4CCc5c4cccc5-n4cccn4)ccc3C2=O)C(=O)N1 (centres unmarked) [Compound 340, N-(2-(2,6-dioxopiperidin-3-yl)-1-oxoisoindolin-5-yl)-4-(1H-pyrazol-1-yl)indoline-1-carboxamide] | < 0.1 µM | 0.1 to 1 µM | < 0.1 µM | 100 to 1000 nM | < 0.1 µM | 0.1 to 1 µM | < 0.1 µM | – | – | – | – | –
14 | COCc1cccc2c1CCN2C(=O)Nc1ccc2c(c1)CN(C1CCC(=O)NC1=O)C2=O (centres unmarked) [Compound 341] | < 0.1 µM | 0.1 to 1 µM | < 0.1 µM | 100 to 1000 nM | < 0.1 µM | 0.1 to 1 µM | 0.1 to 1 µM | – | – | – | – | –
15 | CC1(c2ccc3c(c2)CCN3C(=O)Nc2ccc3c(c2)CN(C2CCC(=O)NC2=O)C3=O)CC1 (centres unmarked) [Compound 344, N-(2-(2,6-dioxopiperidin-3-yl)-1-oxoisoindolin-5-yl)-5-(1-methylcyclopropyl)indoline-1-carboxamide] | < 0.1 µM | < 0.1 µM | < 0.1 µM | 100 to 1000 nM | < 0.1 µM | 0.1 to 1 µM | 0.1 to 1 µM | – | – | – | – | –
16 | O=C1CCC(N2Cc3cc(NC(=O)N4CCc5cc(C6CC6)ccc54)ccc3C2=O)C(=O)N1 (centres unmarked) [Compound 348, 5-cyclopropyl-N-(2-(2,6-dioxopiperidin-3-yl)-1-oxoisoindolin-5-yl)indoline-1-carboxamide] | < 0.1 µM | < 0.1 µM | < 0.1 µM | 100 to 1000 nM | < 0.1 µM | < 0.1 µM | < 0.1 µM | – | – | – | – | –
17 | O=C1CCC(N2Cc3cc(NC(=O)N4CCc5cc(C6CCC6)ccc54)ccc3C2=O)C(=O)N1 (centres unmarked) [Compound 357, 5-cyclobutyl-N-(2-(2,6-dioxopiperidin-3-yl)-1-oxoisoindolin-5-yl)indoline-1-carboxamide] | – | – | < 0.1 µM | > 1000 nM | – | – | – | < 0.1 µM | < 0.1 µM | < 0.1 µM | 0.1 to 1 µM | < 0.1 µM

— US20250171420A1 (Monte Rosa Therapeutics, Inc., priority 2022, published 2025)
